Patent publication US7531575B2, “Method of modulating cellular activity and agents useful for same” (Eberhard-Karls-Universität Tübingin, priority 2002, dated 2009)

What was measured:
Type in all cases: cell-based, murine
p38 MAPK = experiment: phospho-p38 immunoblot, LPS-stimulated N9 microglia; settings: N9 cells, LPS 10 μg/mL 10 min, TNL pre-incubation 1 hr
From the text: (§1) TNL was a generous gift of Kissei Pharmaceuticals, LPC (Escherichia coli, 0127:BS), phorbol 12-myristate 13-acetate (PMA) and dexamethasone (DEX) were obtained from Sigma, BAY 11-7082 (BAY), NF-κB SN50 inhibitory peptide (SN50), GF 109203X (GFX) and rottlerin (ROT) were purchased from Biomol. PD098059 (PD) was obtained from Calbiochem. Purified murine interferon-γ (IFN-γ) was purchased from Roche Diagnostics. N9 murine microglial cells were a kind gift from P. Ricciardi-Castagnoli (Righi, M. et al. 1989 supra). Cells were cultured in Dulbecco's modified Eagle's medium (DMEM) supplemented with 10% fetal calf serum (FCS), 2 mM glutamine, penicillin (100 unit/mL) and streptomycin (100 μg/mL) and maintained at 37° in an atmosphere of 5% CO2. Viability was assessed by crystal violet staining.
For the preparation of whole cell lysates, the cells were lysed in 0.1 M Tris-HCl (pH 7.2) containing 0.1% NP40, 0.1 mM EDTA and 5 μg/mL phenylmethylsulphonyl fluoride. Twenty micrograms protein was separated by 10-12% SDS-PAGE and electroblotted on nitrocellulose membrane. Equal loading was controlled by Ponceau S staining. […]

iNOS [1] = experiment: iNOS protein immunoblot, LPS-stimulated N9 microglia; settings: TNL 300 μM
From the text: as §1
For the preparation of whole cell lysates, the cells were lysed in 0.1 M Tris-HCl (pH 7.2) containing 0.1% NP40, 0.1 mM EDTA and 5 μg/mL phenylmethylsulphonyl fluoride. Twenty micrograms protein was separated by 10-12% SDS-PAGE and electroblotted on nitrocellulose membrane. Equal loading was controlled by Ponceau S staining. Immunodetection was performed using the following antibodies: anti-iNOS rabbit polyclonal antibody (1:1000, Cayman), antiphospho-IκBα mouse monoclonal antibody (1:1000), anti-PKCδ mouse monoclonal antibody (1:2000), antiphospho-MARCKS rabbit polyclonal antibody (1:1000), antiphospho-ERK-1/2, antiphospho-AKT, antiphospho-p38 mouse monoclonal antibodies (1:2000), anti-ERK-1/2, anti-AKT mouse monoclonal antibodies (1:500, all from Signal Transduction Laboratories). Bands were visualized using horseradish peroxidase-conjugated anti-rabbit IgG (1:4000 SantaCruz) or anti-mouse IgG (1:4000, Amersham).

IκBα = experiment: phospho-IκBα immunoblot, IFN-γ-stimulated N9 microglia; settings: N9 cells, IFN-γ 200 u ml, tranilast 30-300 μM, 4 h preincubation
Method: (§2) Tranilast was a generous gift of Kissei Pharmaceuticals (Nagano, Japan). Murine recombinant IFN-γ was purchased from Boehringer (Mannheim, Germany). Dexamethasone (DEX) was obtained from Sigma (Deisenhofen, Germany). N9 murine microglial cells were a kind gift from P. Ricciardi-Castagnoli (Milano, Italy) (Righi, M., Mori, L., De Libero, G., Sironi, M., Biondi, A., Mantovani, A., Donini, S. D. and Ricciardi-Castagnoli, P. Eur J Immunol 19(8):1443-1448, 1989). The cells were cultured in Dulbecco's modified Eagle's medium (DMEM) supplemented with 10% foetal calf serum (FCS), 2 mM glutamine and penicillin ([…])/streptomycin (100 μg ml), and maintained at 37° C. in an atmosphere of 5% CO2. Viability was assessed by crystal violet staining.
For the preparation of whole cell lysates, the cells were rinsed in phosphate-buffered saline (PBS), harvested, centrifuged at 1200×g, lysed in 0.1 M TRIS-HCl (pH 7.2) containing 0.1% NP40, 0.1 mM EDTA and 5 μg ml PMSF for 40 min on ice, and centrifuged at 10,000×g for 10 min. Protein concentration was determined using Biorad reagents with photometric analysis. Proteins (20 μg lane) were separated by 10-12% SDS-PAGE and electroblotted on nitrocellulose. qual protein loading was controlled by Ponceau S staining. […]

iNOS mRNA = iNOS mRNA Northern blot, IFN-γ-stimulated N9 microglia; settings: N9 cells, IFN-γ 200 u ml, 24 h, tranilast 300 μM
Method: as §2
Total RNA was isolated using the RNeasy kit (Qiagen, Hilden, Germany). Total RNA ([…]) was separated on 1.2% agarose gels and blotted onto nylon membranes (Amersham). The filters were hybridized according to standard procedures (Platten, M., Wild-Bode, C., Wick, W., Leitlein, J., Dichgans, J., and Weller, M., Int. J. Cancer, 93:53-61, 2001) with a ^32P-labelled murine cDNA probe for iNOS. For the generation of the iNOS probe, N9 cells were stimulated with IFN-γ ([…]) for 24 h. […]

iNOS [2] = experiment: iNOS activity by Griess assay (NO2 release), IFN-γ-stimulated N9 microglia; settings: N9 cells, IFN-γ 200 u ml, 48 h
Method: as §2
iNOS activity was assessed by the Griess assay as described elsewhere (Rieger, J., Stander, M., Loschmann, P. A., Heneka, M., Dichgans, J., Klockgether, T. and Weller, M., Oncogene, 17:2323-2332, 1998). Briefly, conditioned supernatant (100 μl) was incubated with an equal volume of 1% sulphanilamide/0.1% naphthyl ethylene diamine dihydrochloride/2.5% H3PO4 (Griess reagent) (Green, L. C., Wagner, D. A., Glogowski, J., Skipper, P. I., Wishnok, J. S, and Tannenbaum, S. R., Anal. Biochem., 126:131-138, 1982), incubated for 5 min at room temperature, and the absorbance at […] determined. Solutions of NaNO2 diluted in DMEM served as standards. The absorbance readings resulting from DMEM alone were subtracted from the sample values. Cell density was assessed using crystal violet staining to control for differences in cell proliferation. iNOS activity is thus expressed here as NO2 accumulated per 48 h per 10^5 cells.

Which results are given for `COc1ccc(/C=C/C(=O)Nc2ccccc2C(=O)O)cc1OC` [tranilast, 2-[[3-(3,4-dimethoxyphenyl)-1-oxo-2-propenyl]amino]benzoic acid]?
cellular phospho-p38 levels after LPS (p38 MAPK): did not alter; accumulation of iNOS protein after LPS (iNOS [1]; N9 cells, LPS 10 μg/mL): suppressed; PMA superinduction of iNOS protein in LPS-stimulated cells (iNOS [1]; PMA 100 nM 15 min, LPS 10 μg/mL 24 hr): abolished; IκB phosphorylation in response to IFN-γ (IκBα): concentration-dependent suppression; IFN-γ-induced iNOS mRNA expression (iNOS mRNA): greatly suppressed; inhibition of NO release (iNOS [2]; concentration series): concentration-dependent inhibition; reduction of NO release (NO2, Griess assay) (iNOS [2]; tranilast 300 μM): 65%
